Data on 13 compounds can be found in publication PMC10178127, “Immunomodulatory Effects of the Pea Defensin Psd1 in the Caco-2/Immune Cells Co-Culture upon Candida albicans Infection” (International Journal of Molecular Sciences, 2023).

Converted amounts (≈) assume the structure as drawn. Like-named read-outs stand apart in the source and are kept apart here. *1 amine or outer side, *2 acyl side, *3 side chain or, on linkers, in order; H or OH if unused. Where a SMILES comes first, the peptide text is derived from it. Bridges are numbered along the chain shown (N, C = ends). [ ]: non-standard residue; d: D form. The star is where a group is joined. hTyr(3S-OH,4S-OH,3'-OSO3H) = N[C@H](C(=O)O)[C@H](O)[C@@H](O)c1ccc(O)c(OS(=O)(=O)O)c1; pTerphenylCO(4''-OnC5H11) = CCCCCOc1ccc(-c2ccc(-c3ccc(C(=O)*)cc3)cc2)cc1; Orn(4R-OH,5R-OH) = O=C([C@H](C[C@@H](O)[C@@H](O)N[*:3])N[*:1])[*:2]; hTyr(3S-OH,4S-OH) = N[C@H](C(=O)O)[C@H](O)[C@@H](O)c1ccc(O)cc1; Pro(3S-OH,4S-Me) = C[C@H]1CN[C@H](C(=O)O)[C@H]1O; X1 = CCCCCOc1ccc(-c2cc(-c3ccc(C(=O)*)cc3)no2)cc1; Gln(3R-OH) = NC(=O)C[C@@H](O)[C@H](N)C(=O)O; Hyp = O=C(O)[C@@H]1C[C@@H](O)CN1

In one series the test system is Candida albicans v47a3. Description: Sensitivity to conventional antimycotics, broth dilution method. It is filed as cell-based. From the text:
The clinical isolate of Candida albicans (v47a3) was collected from the patient with human immunodeficiency virus (HIV) infection and mucosal candidiasis and provided by G.N. Gabrichevsky Research Institute for Epidemiology and Microbiology (Moscow, Russia). This strain was susceptible to conventional antifungal agents except for a slight increase in the minimal inhibitory concentrations for triazole derivatives as was shown using the broth dilution method according to [31] (Supporting Materials, Tables S2 and S3). Strain stock was kept at −70 °C in 10% non-fat milk with 10% glycerol. Melittin (>98% pure) synthesized using a standard solid-phase method was provided by Dr. Sergey V. Sychev in M.M. Shemyakin and Yu.A. Ovchinnikov Institute of Bioorganic Chemistry of the Russian Academy of Sciences (Moscow, Russia).
For orientation: Dilution methods test growth across graded concentrations, often in twofold steps.

A further series relates to Caco-2 cells. The conditions noted are these: known model substrates of efflux pumps; no reference given; cited from earlier work.
In series [1] the test system is human peripheral blood mononuclear cells (PBMCs). Description: Resazurin-based cell cytotoxicity assay. Conditions: PBMCs, 24 h, read-out: concentration inducing 50% cell death. As to the method:
The cytotoxic properties of the pea defensin Psd1 were investigated by resazurin-based cell cytotoxicity assay as previously described. In brief, PBMCs were seeded in 96-well plates at 2 × 10^6 cells per well in RPMI-1640 supplemented with 10% FBS and kept in a CO2 incubator for 24 h. After this, serial two-fold dilutions of defensin in a complete culture medium were added to the wells at final concentrations from 0.2 to 50 μM and the plates were incubated for 24 h. Resazurin (Sigma) was added at a final concentration of 70 µM, and the plates were incubated overnight (16–18 h). Fluorescent resorufin was registered using a 535/595 filter at PlateReader AF2200 (Eppendorf). Untreated cells were used as negative controls. Non-ionogenic detergent Triton X-100 and membrane-active peptide melittin from honeybee venom were used as positive controls. The cell viability was calculated according to the following equation: cell viability (%) = (Fsample/Fcontrol) × 100%. Cell lysis was monitored with an Olympus CKX41 microscope.
For orientation: Resazurin is reduced to fluorescent resorufin, in cell work by metabolically active cells.

The mark [2] stands for this setting: V47A3, MIC = 50% growth inhibition, broth dilution according to EUCAST E.DEF 7.3.2, read-out: MICs.

For the compound `C[C@@H]1[C@H](O)[C@@H](C)/C=C/C=C/C=C/C=C/C=C/C=C/C=C/[C@H](O[C@@H]2O[C@H](C)[C@@H](O)[C@H](N)[C@@H]2O)C[C@@H]2O[C@](O)(C[C@@H](O)C[C@@H](O)[C@H](O)CC[C@@H](O)C[C@@H](O)CC(=O)O[C@H]1C)C[C@H](O)[C@H]2C(=O)O` [Amphotericin B], the MIC with Candida albicans v47a3 (V47A3, MIC = >90% inhibition of fungal growth, broth dilution according to EUCAST E.DEF 7.3.2, read-out: MICs) worked out at 0.5 µg/mL (≈ 0.541 µM). Take `CCCCCOc1ccc(-c2ccc(-c3ccc(C(=O)N[C@H]4C[C@@H](O)[C@@H](O)NC(=O)[C@@H]5[C@@H](O)[C@@H](C)CN5C(=O)[C@H]([C@@H](C)O)NC(=O)[C@H]([C@H](O)[C@@H](O)c5ccc(O)cc5)NC(=O)[C@@H]5C[C@@H](O)CN5C(=O)[C@H]([C@@H](C)O)NC4=O)cc3)cc2)cc1` [Anidulafungin] ({pTerphenylCO(4''-OnC5H11)}-[Orn(4R-OH,5R-OH)]T[Hyp][hTyr(3S-OH,4S-OH)]T[Pro(3S-OH,4S-Me)]; lactam 1-C): the MIC in the series with Candida albicans v47a3 (V47A3, read-out: MICs) came to 0.03 µg/mL (≈ 0.0263 µM).

Consider `CC[C@H](C)C[C@H](C)CCCCCCCCC(=O)N[C@H]1C[C@@H](O)[C@@H](NCCN)NC(=O)[C@@H]2[C@@H](O)CCN2C(=O)[C@H]([C@H](O)CCN)NC(=O)[C@H]([C@H](O)[C@@H](O)c2ccc(O)cc2)NC(=O)[C@@H]2C[C@@H](O)CN2C(=O)[C@H]([C@@H](C)O)NC1=O` [Caspofungin], for which the MIC with Candida albicans v47a3 (V47A3, read-out: MICs) was found to be 0.06 µg/mL (≈ 0.0549 µM). `OC(Cn1cncn1)(Cn1cncn1)c1ccc(F)cc1F` [Fluconazole]: in the series with Candida albicans v47a3 (setting [2]), the MIC is 8 µg/mL (≈ 26.1 µM). Same read-out and setting: under `Nc1[nH]c(=O)ncc1F` [Flucytosine] stands not above 0.06 µg/mL; under `CCC(C)n1ncn(-c2ccc(N3CCN(c4ccc(OCC5COC(Cn6cncn6)(c6ccc(Cl)cc6Cl)O5)cc4)CC3)cc2)c1=O` (stereo not shown) [Itraconazole], 0.12 µg/mL (≈ 0.17 µM). With `CCCCCOc1ccc(-c2cc(-c3ccc(C(=O)N[C@H]4C[C@@H](O)[C@@H](O)NC(=O)[C@@H]5[C@@H](O)[C@@H](C)CN5C(=O)[C@H]([C@H](O)CC(N)=O)NC(=O)[C@H]([C@H](O)[C@@H](O)c5ccc(O)c(OS(=O)(=O)O)c5)NC(=O)[C@@H]5C[C@@H](O)CN5C(=O)[C@H]([C@@H](C)O)NC4=O)cc3)no2)cc1` [Micafungin] (X1-[Orn(4R-OH,5R-OH)]T[Hyp][hTyr(3S-OH,4S-OH,3'-OSO3H)][Gln(3R-OH)][Pro(3S-OH,4S-Me)]; lactam 1-C), in the series on Candida albicans v47a3 (V47A3, read-out: MICs), the MIC is 0.008 µg/mL (≈ 0.0063 µM). For the compound `CC[C@@H]([C@H](C)O)n1ncn(-c2ccc(N3CCN(c4ccc(OC[C@@H]5CO[C@@](Cn6cncn6)(c6ccc(F)cc6F)C5)cc4)CC3)cc2)c1=O` [Posaconazole], in the series with Candida albicans v47a3 (setting [2]), the MIC came to 0.12 µg/mL (≈ 0.171 µM). The same measure, in the same setting: the result for `C[C@@H](c1ncncc1F)[C@](O)(Cn1cncn1)c1ccc(F)cc1F` [Voriconazole] reads 0.5 µg/mL (≈ 1.43 µM). As for `C[C@H]1O[C@@H](O[C@H]2[C@@H](O)C[C@H](O[C@H]3[C@@H](O)C[C@H](O[C@H]4CC[C@@]5(C)[C@H](CC[C@@H]6[C@@H]5C[C@@H](O)[C@]5(C)[C@@H](C7=CC(=O)OC7)CC[C@]65O)C4)O[C@@H]3C)O[C@@H]2C)C[C@H](O)[C@@H]1O` [digoxin], the “efflux ratio (ER)” value in the series with Caco-2 cells is more than 10. Consider `O=C1c2c(O)ccc(O)c2C(=O)c2c(NCCNCCO)ccc(NCCNCCO)c21` [mitoxantrone], for which the “efflux ratio (ER)” value with Caco-2 cells is given as more than 10. Take `CC[C@]1(O)C[C@@H]2CN(CCc3c([nH]c4ccccc34)[C@@](C(=O)OC)(c3cc4c(cc3OC)N(C)[C@H]3[C@@](O)(C(=O)OC)[C@H](OC(C)=O)[C@]5(CC)C=CCN6CC[C@]43[C@@H]65)C2)C1` [vinblastine]: the “efflux ratio (ER)” value in the series on Caco-2 cells was more than 10.

On to melittin [reference compound], for which the IC50 in series [1] worked out at 6.25 µM.
